Results taken from patent US12295936B2, “Immunomodulating urea azalides” (Zoetis Services LLC, priority 2020, dated 2025).

Key:
[1] = test system: TNF-α; experiment: LPS-stimulated whole bovine blood assay, MSD cytokine detection; type: cell-based; settings: Bos taurus, LPS-stimulated bovine whole blood; read-out: TNF-α (IC50 μM)
[2] = test system: IL-1β; experiment: as above; type: cell-based; settings: overstimulation of IL-1β, LPS-stimulated bovine whole blood
[3] = test system: IL-6; experiment: as above; type: cell-based; settings: Bos taurus, LPS-stimulated bovine whole blood; read-out: IL-6 (IC50 μM)
Description: In order to correlate RNA sequencing data to cytokine changes the whole blood assay was utilized. […] The enhancement result represents an overall stimulation of cytokine levels due to cellular stress or potential toxicity with increasing concentrations of the compound, representing a typical bell shape response curve for immunomodulatory activity.

[4] = test system: BRD pathogens, M. haemolytica and P. multocida; experiment: MIC screening panel of BRD pathogens (antibacterial / non-antibacterial); settings: read-out: antibacterial / non-antibacterial (MIC for the BRD pathogens)

Row | IC50 [1] | IC50 [3] | Structure (SMILES) | IL-1β OS of LPS [2] | MIC [4]
1 | 79 µM | 6 µM | CCCNC[C@]1(O)[C@H](C)O[C@@H](O[C@H]2[C@H](C)[C@@H](O[C@@H]3O[C@H](C)C[C@H](N(C)C(=O)N(C)c4nccnn4)[C@H]3O)[C@](C)(O)C[C@@H](C)CN[C@H](C)[C@@H](O)[C@](C)(O)[C@@H](CC)OC(=O)[C@@H]2C)C[C@@]1(C)OC [Example H-56, 1-((2S,3R,4S,6R)-2-(((2R,3S,4R,5R,8R,10R,11R,12S,13S,14R)-2-ethyl-3,4,10-trihydroxy-13-(((2R,4R,5S,6S)-5-hydroxy-4-methoxy-4,6-dimethyl-5-((propylamino)methyl)tetrahydro-2H-pyran-2-yl)oxy)-3,5,8,10,12,14-hexamethyl-15-oxo-1-oxa-6-azacyclopentadecan-11-yl)oxy)-3-hydroxy-6-methyltetrahydro-2H-pyran-4-yl)-1,3-dimethyl-3-(1,2,4-triazin-3-yl)urea] | 18 µM | > 64 µg/mL
2 | 9 µM | 30 µM | CCCNC[C@]1(O)[C@H](C)O[C@@H](O[C@H]2[C@H](C)[C@@H](O[C@@H]3O[C@H](C)C[C@H](N(C)C(=O)N(C)c4ccncc4)[C@H]3O)[C@](C)(O)C[C@@H](C)CN[C@H](C)[C@@H](O)[C@](C)(O)[C@@H](CC)OC(=O)[C@@H]2C)C[C@@]1(C)OC [Example H-59, 1-((2S,3R,4S,6R)-2-(((2R,3S,4R,5R,8R,10R,11R,12S,13S,14R)-2-ethyl-3,4,10-trihydroxy-13-(((2R,4R,5S,6S)-5-hydroxy-4-methoxy-4,6-dimethyl-5-((propylamino)methyl)tetrahydro-2H-pyran-2-yl)oxy)-3,5,8,10,12,14-hexamethyl-15-oxo-1-oxa-6-azacyclopentadecan-11-yl)oxy)-3-hydroxy-6-methyltetrahydro-2H-pyran-4-yl)-1,3-dimethyl-3-(pyridin-4-yl)urea] | 16 µM | > 64 µg/mL
3 | 1 µM | 1 µM | CCCNC[C@]1(O)[C@H](C)O[C@@H](O[C@H]2[C@H](C)[C@@H](O[C@@H]3O[C@H](C)C[C@H](N(C)C(=O)N(C)c4ccncc4C)[C@H]3O)[C@](C)(O)C[C@@H](C)CN[C@H](C)[C@@H](O)[C@](C)(O)[C@@H](CC)OC(=O)[C@@H]2C)C[C@@]1(C)OC [Example H-62, 1-((2S,3R,4S,6R)-2-(((2R,3S,4R,5R,8R,10R,11R,12S,13S,14R)-2-ethyl-3,4,10-trihydroxy-13-(((2R,4R,5S,6S)-5-hydroxy-4-methoxy-4,6-dimethyl-5-((propylamino)methyl)tetrahydro-2H-pyran-2-yl)oxy)-3,5,8,10,12,14-hexamethyl-15-oxo-1-oxa-6-azacyclopentadecan-11-yl)oxy)-3-hydroxy-6-methyltetrahydro-2H-pyran-4-yl)-1,3-dimethyl-3-(3-methylpyridin-4-yl)urea] | <1 µM | > 64 µg/mL
4 | 28 µM | 28 µM | CCCNC[C@]1(O)[C@H](C)O[C@@H](O[C@H]2[C@H](C)[C@@H](O[C@@H]3O[C@H](C)C[C@H](N(Cc4nccs4)C(=O)N(C)c4ccccc4)[C@H]3O)[C@](C)(O)C[C@@H](C)CN[C@H](C)[C@@H](O)[C@](C)(O)[C@@H](CC)OC(=O)[C@@H]2C)C[C@@]1(C)OC [Example H-64, 1-((2S,3R,4S,6R)-2-(((2R,3S,4R,5R,8R,10R,11R,12S,13S,14R)-2-ethyl-3,4,10-trihydroxy-13-(((2R,4R,5S,6S)-5-hydroxy-4-methoxy-4,6-dimethyl-5-((propylamino)methyl)tetrahydro-2H-pyran-2-yl)oxy)-3,5,8,10,12,14-hexamethyl-15-oxo-1-oxa-6-azacyclopentadecan-11-yl)oxy)-3-hydroxy-6-methyltetrahydro-2H-pyran-4-yl)-3-methyl-3-phenyl-1-(thiazol-2-ylmethyl)urea] | 16 µM | > 64 µg/mL
5 | 9 µM | 6 µM | CCCNC[C@]1(O)[C@H](C)O[C@@H](O[C@H]2[C@H](C)[C@@H](O[C@@H]3O[C@H](C)C[C@H](N(Cc4ccccc4)C(=O)N(C)c4ccccc4)[C@H]3O)[C@](C)(O)C[C@@H](C)CN[C@H](C)[C@@H](O)[C@](C)(O)[C@@H](CC)OC(=O)[C@@H]2C)C[C@@]1(C)OC [Example H-65, 1-benzyl-1-((2S,3R,4S,6R)-2-(((2R,3S,4R,5R,8R,10R,11R,12S,13S,14R)-2-ethyl-3,4,10-trihydroxy-13-(((2R,4R,5S,6S)-5-hydroxy-4-methoxy-4,6-dimethyl-5-((propylamino)methyl)tetrahydro-2H-pyran-2-yl)oxy)-3,5,8,10,12,14-hexamethyl-15-oxo-1-oxa-6-azacyclopentadecan-11-yl)oxy)-3-hydroxy-6-methyltetrahydro-2H-pyran-4-yl)-3-methyl-3-phenylurea] | 2 µM | > 64 µg/mL
6 | 56 µM | 92 µM | CCCNC[C@]1(O)[C@H](C)O[C@@H](O[C@H]2[C@H](C)[C@@H](O[C@@H]3O[C@H](C)C[C@H](N(C)C(=O)Nc4cccc(Cl)c4)[C@H]3O)[C@](C)(O)C[C@@H](C)CN[C@H](C)[C@@H](O)[C@](C)(O)[C@@H](CC)OC(=O)[C@@H]2C)C[C@@]1(C)OC [Example H-88, 3-(3-chlorophenyl)-1-((2S,3R,4S,6R)-2-(((2R,3S,4R,5R,8R,10R,11R,12S,13S,14R)-2-ethyl-3,4,10-trihydroxy-13-(((2R,4R,5S,6S)-5-hydroxy-4-methoxy-4,6-dimethyl-5-((propylamino)methyl)tetrahydro-2H-pyran-2-yl)oxy)-3,5,8,10,12,14-hexamethyl-15-oxo-1-oxa-6-azacyclopentadecan-11-yl)oxy)-3-hydroxy-6-methyltetrahydro-2H-pyran-4-yl)-1-methylurea] | 13 µM | > 64 µg/mL
7 | 8 µM | 11 µM | CCCNC[C@]1(O)[C@H](C)O[C@@H](O[C@H]2[C@H](C)[C@@H](O[C@@H]3O[C@H](C)C[C@H](N(C)C(=O)N(C)c4ccccc4)[C@H]3O)[C@](C)(O)C[C@@H](C)CN(CCC)[C@H](C)[C@@H](O)[C@](C)(O)[C@@H](CC)OC(=O)[C@@H]2C)C[C@@]1(C)OC [Example H-102, 1-((2S,3R,4S,6R)-2-(((2R,3S,4R,5R,8R,10R,11R,12S,13S,14R)-2-ethyl-3,4,10-trihydroxy-13-(((2R,4R,5S,6S)-5-hydroxy-4-methoxy-4,6-dimethyl-5-((propylamino)methyl)tetrahydro-2H-pyran-2-yl)oxy)-3,5,8,10,12,14-hexamethyl-15-oxo-6-propyl-1-oxa-6-azacyclopentadecan-11-yl)oxy)-3-hydroxy-6-methyltetrahydro-2H-pyran-4-yl)-1,3-dimethyl-3-phenylurea] | 8 µM | > 64 µg/mL
8 | 5 µM | 4 µM | CCCNC[C@]1(O)[C@H](C)O[C@@H](O[C@H]2[C@H](C)[C@@H](O[C@@H]3O[C@H](C)C[C@H](N(C)C(=O)N(C)c4ccc(C(F)(F)F)cc4)[C@H]3O)[C@](C)(O)C[C@@H](C)CN(CCC)[C@H](C)[C@@H](O)[C@](C)(O)[C@@H](CC)OC(=O)[C@@H]2C)C[C@@]1(C)OC [Example H-103, 1-((2S,3R,4S,6R)-2-(((2R,3S,4R,5R,8R,10R,11R,12S,13S,14R)-2-ethyl-3,4,10-trihydroxy-13-(((2R,4R,5S,6S)-5-hydroxy-4-methoxy-4,6-dimethyl-5-((propylamino)methyl)tetrahydro-2H-pyran-2-yl)oxy)-3,5,8,10,12,14-hexamethyl-15-oxo-6-propyl-1-oxa-6-azacyclopentadecan-11-yl)oxy)-3-hydroxy-6-methyltetrahydro-2H-pyran-4-yl)-1,3-dimethyl-3-(4-(trifluoromethyl)phenyl)urea] | 3 µM | > 64 µg/mL
9 | 20 µM | 45 µM | CC[C@H]1OC(=O)[C@H](C)[C@@H](O[C@H]2C[C@@](C)(OC)[C@](O)(CN3CCOCC3)[C@H](C)O2)[C@H](C)[C@@H](O[C@@H]2O[C@H](C)C[C@H](N(C)C(=O)N(C)c3ccccc3)[C@H]2O)[C@](C)(O)C[C@@H](C)CN[C@H](C)[C@@H](O)[C@]1(C)O [Example J-10, 1-((2S,3R,4S,6R)-2-(((2R,3S,4R,5R,8R,10R,11R,12S,13S,14R)-2-ethyl-3,4,10-trihydroxy-13-(((2R,4R,5S,6S)-5-hydroxy-4-methoxy-4,6-dimethyl-5-(morpholinomethyl)tetrahydro-2H-pyran-2-yl)oxy)-3,5,8,10,12,14-hexamethyl-15-oxo-1-oxa-6-azacyclopentadecan-11-yl)oxy)-3-hydroxy-6-methyltetrahydro-2H-pyran-4-yl)-1,3-dimethyl-3-phenylurea] | 40 µM | > 64 µg/mL
10 | 34 µM | 126 µM | CC[C@H]1OC(=O)[C@H](C)[C@@H](O[C@H]2C[C@@](C)(OC)[C@](O)(CN3CCCC3)[C@H](C)O2)[C@H](C)[C@@H](O[C@@H]2O[C@H](C)C[C@H](N(C)C(=O)N(C)c3ccccc3)[C@H]2O)[C@](C)(O)C[C@@H](C)CN[C@H](C)[C@@H](O)[C@]1(C)O [Example J-12, 1-((2S,3R,4S,6R)-2-(((2R,3S,4R,5R,8R,10R,11R,12S,13S,14R)-2-ethyl-3,4,10-trihydroxy-13-(((2R,4R,5S,6S)-5-hydroxy-4-methoxy-4,6-dimethyl-5-(pyrrolidin-1-ylmethyl)tetrahydro-2H-pyran-2-yl)oxy)-3,5,8,10,12,14-hexamethyl-15-oxo-1-oxa-6-azacyclopentadecan-11-yl)oxy)-3-hydroxy-6-methyltetrahydro-2H-pyran-4-yl)-1,3-dimethyl-3-phenylurea] | 22 µM | > 64 µg/mL
